Laboratory results published in patent publication US20240085429A1, “ALTERING PROTEIN FUNCTION BY PHARMACOLOGICAL TARGETING OF MEMBRANE DOMAINS” (University of Virginia Patent Foundation, priority 2021, published 2024).

Test system: GPMVs isolated from HeLa cells
Test: High-throughput screen of the Cayman bioactive lipid library for effects on GPMV phase behavior (% phase separated vesicles, NBD-DSPE phase preference)
Parameters: species or system human
Details: HeLa GPMVs, RT; for Effect on Pang(ϕ): NBD-DSPE raft phase preference; for Effect on Pang(ϕ) / % phase separated z-score / Pordered z-score: final 1 μM; for % phase separated z-score / Pordered z-score: Table 4; for Pordered z-score: NBD-DSPE; for Effect on % phase separated vesicles: final drug concentration 1 μM, NBD-DSPE channel
Method: This approach is not practical for high throughput screening applications, which typically are performed at a single temperature. Changes in the percentage of phase-separated GPMVs were monitored at a single temperature in response to the addition of small molecules as a surrogate for measuring Tmisc directly (FIG. 1A). This approach requires that a significant fraction of GPMVs are phase separated under control conditions, such that experimentally-induced changes can be readily detected.
In phase separated vesicles these markers are enriched in their preferred domains, such that a given vesicle contains a co-existing NBD-DSPE-rich phase and a DiD-rich phase. In contrast, NBD-DSPE and DiD colocalize in a single uniform phase in GPMVs that are not phase separated. We also optimized conditions to isolate and plate GPMVs in multi-well plates.
To provide proof-of-concept, the Cayman lipid library containing ˜850 bioactive lipid-like compounds in the Vanderbilt High-throughput Screening Facility was screened, using […] of each compound across three independent screens. All screens were carried out using an automated microscope/high-content imaging system and robotic plate handler at RT. […] Compounds were initially scored based on their capacity to alter the percentage of phase separated vesicles (FIG. 2A).
HeLa cells were obtained from ATCC (cat #CCL-2) and cultured at 37° C. in 5% CO2 in a humidified tissue culture incubator. […] In brief, cells were plated in 150 mm tissue culture dishes the day before the experiment, to yield a confluence of 70-80% the day of the experiment. To generate GPMVs, cells were rinsed twice in 10 ml of GPMV buffer (2 mM DTT, 25 mM formaldehyde, 150 mM NaCl, 10 mM HEPES, 2 mM CaCl2), pH=7.4) and subsequently incubated in 12 ml of GPMV buffer at 37° C. with gentle shaking at 70 rpm for 1.5 h. The raft marker NBD-DSPE (1,2-distearoyl-sn-glycero-3-phosphoethanolamine-N-(7-nitro-2-1,3-benzoxadiazol-4-yl; Avanti Polar Lipids) and the non-raft marker DiD (1,1′-dioctadecyl-3,3,3′,3′-tetramethylindodicarbocyanine perchlorate; cat #D307 Thermo Scientific) were added from stock solutions in ethanol to the GPMV suspension at final concentrations of 5-6 μg/ml and 1 μg/ml, respectively, for the initial screenings. For some experiments, cells were prelabelled with 5 μg/ml DiD for 8 min at 4° C. and washed several times prior to GPMVs generation. Screening was performed the same day that GPMVs were generated.
[…] GPMVs suspension in GPMV buffer was then added to each well of a 96-well plate to obtain a final drug concentration of 1 μM. The GPMVs were allowed to settle to the bottom of the plates for 1.5 h prior to imaging. Samples were prepared and imaged at RT. The screen was repeated on three different days using three separately prepared batches of GPMVs (3 biological replicates).
Image acquisition was performed with an ImageXpress Micro XL automated microscope (Molecular Devices) using a Nikon 40X 0.6 NA Super Plan Fluor ELWD objective and a Lumencor Sola solid-state light source. Laser autofocus was employed at each site to obtain the best focus z-plane for each channel. […] Sixteen sites were captured per well using a 4.2 MP widefield scientific cMOS camera with a camera binning of 1. Each plate took approximately 1.3 h to image. Multiple plates were loaded to a plate carousel (ThermoScientific), shuttled to/from the ImageXpress via a ThermoScientific CRS F3 robot arm, and automatically run through the Momentum scheduling software (Thermo). To analyze the data, images and metadata were exported as TIFF files and subjected to image analysis using a custom MATLAB-based program as described below.

Molecule	Effect on Pang(ϕ)	% phase separated z-score	Pordered z-score	Effect on % phase separated vesicles
CCCCCCCCCCCCCCCCOC[C@H](COP(=O)([O-])OCC[N+](C)(C)C)OC [2-O-methyl PAF C-16, 1-O-hexadecyl-2-O-methyl-sn-glyceryl-3-phosphorylcholine]	↑	−1.06	2.68	–
CCCCCCCCCCCCCCCCOCC(COP(=O)([O-])OCC[N+](C)(C)C)SC(C)=O (stereo not shown) [2-thio-PAF, 1-O-hexadecyl-2-deoxy-2-thio-S-acetyl-sn-glyceryl-3-phosphorylcholine]	–	−3.15	−0.72	↓
Cl.c1cc(N2CCNCC2)c2cnccc2c1 [8-piperazin-1-yl-Isoquinoline (hydrochloride)]	–	2.14	1.61	↑
CCCCC/C=C\C/C=C\CCCCCCCCCC(=O)O [11(Z),14(Z)-Eicosadienoic Acid]	–	−2.15	−0.46	↓
CCCCCCCC/C=C\CCCCCCCC(=O)OC[C@@H](COP(O)(O)=S)OC.CCN(CC)CC.CCN(CC)CC [(2S)-OMPT, 9Z-octadecenoic acid, (2S)-3-[(hydroxymercaptophosphinyl)oxy]-2-methoxypropyl ester, triethyl ammonium salt (1:2)]	–	−2.12	−0.27	↓
CCCCC/C=C\C/C=C\C/C=C\C/C=C\CCCC(=O)NCCF [Arachidonoyl-2′-Fluoroethylamide]	↑	1.90	2.38	–
CCCCCCCCCCCCC/C=C/[C@@H](O)[C@H](CO)NC(=O)CCCCCCC [C8 Ceramide (d18:1/8:0)]	–	−2.87	−0.72	↓
CCCCCCCCCCCC1NC(C(=O)O)CS1 (stereo not shown) [CAY10444, 2-undecyl-thiazolidine-4-carboxylic acid]	↓	−1.61	−2.04	–
CC1(COc2ccc(CC3SC(=O)NC3=O)cc2)CCCCC1 (stereo not shown) [Ciglitazone]	–	−2.73	−1.71	–
COc1ccc(-c2nc(C(=O)N3CCN(C)CC3)sc2-c2ccc(OC)cc2)cc1.Cl [FR122047 (hydrochloride), 1-[[4,5-bis(4-methoxyphenyl)-2-thiazolyl]carbonyl]-4-methyl-piperazine, monohydrochloride]	↓	0.12	−2.03	–
CC(C)c1ccc2c(c1)c(SC(C)(C)C)c(CC(C)(C)C(=O)O)n2Cc1ccc(Cl)cc1 [MK-886, 1-[(4-chlorophenyl)methyl]-3-[(1,1-dimethylethyl)thio]-α,α-dimethyl-5-(1-methylethyl)-1H-indole-2-propanoic acid]	↑	0.67	2.10	–
CCCCCCCCCCCCCCCCOC[C@H](COP(=O)([O-])OCC[N+](C)(C)C)OC(=O)NC [Methylcarbamyl PAF C-16]	↑	−0.58	2.20	–
CCCCCCCCCCCCC/C=C/[C@@H](O)[C@H](CO)N(C)C [N,N-Dimethylsphingosine (d18:1)]	–	−2.09	−0.70	↓
CCCCCCCCCCCCCCCC(=O)NCCS(=O)(=O)O [N-Palmitoyl Taurine]	–	2.19	1.66	↑
CCCCCCCCCCCCCCCCCC(=O)NCCS(=O)(=O)O [N-Stearoyl Taurine]	↑	3.21	2.89	↑
C=C(C)[C@@H]1CCC(C)=C[C@H]1c1c(C)cc(O)cc1O [O-1602, 5-methyl-4-[(1R,6R)-3-methyl-6-(1-methylethenyl)-2-cyclohexen-1-yl] -1,3-benzenediol]	–	−2.10	−0.27	↓
CCCCCCCC/C=C\CCCCCCCC(=O)N[C@H](CO)c1ccc(O)cc1 [OMDM-1, (S)-N-(1-(4-hydroxyphenyl)-2-hydroxyethyl) oleamide]	–	−2.62	−0.54	↓
CCCCCCCCCCCCCCCCOC[C@H](COP(=O)([O-])OCC[N+](C)(C)C)OC(C)=O [PAF C-16, 1-O-hexadecyl-2-O-acetyl-sn-glyceryl-3-phosphorylcholine]	–	−2.00	1.87	↓
Br.CCSC(=N)N [S-ethyl Isothiourea (hydrobromide)]	↑	0.85	2.57	–
CN(C)S(=O)(=O)c1ccc2c(c1)C(=Cc1cc3c([nH]1)CCCC3)C(=O)N2 [SU6656, 2,3-dihydro-N,N-dimethyl-2-oxo-3-[(4,5,6,7-tetrahydro-1H-indol-2-yl)methylene]-1H-indole-5-sulfonamide]	–	−2.06	−0.42	↓
CCCCCCCCCCCCCCOc1ccc(C(=O)O)o1 [TOFA, 5-(Tetradecyloxy)-2-furancarboxylic acid]	–	−3.41	−1.20	↓
O=c1[nH]c(-c2ccc(C(F)(F)F)cc2)nc2c1CSCC2 [XAV939, 3,5,7,8-tetrahydro-2-[4-(trifluoromethyl)phenyl]-4H-thiopyrano[4,3-d]pyrimidin-4-one]	–	2.33	0.58	↑
COc1ccc(/C=C\c2cc(OC)cc(OC)c2)cc1 [cis-trismethoxy Resveratrol]	–	−2.45	−1.61	↓
CCCCCCCCCCCCCCCCSP(=O)([O-])OCC[N+](C)(C)C [thio-Miltefosine]	↑	2.12	2.78	↑
(−)-Epigallocatechin Gallate	–	4.33	1.42	↑
